Measured values from patent US20210378993A1 (Nacuity Pharmaceuticals, Inc., priority 2020, published 2021).
Where “and” joins values, the source holds several entries; their conditions need not be identical. Equal entries are not always repeated.

How the values were obtained:
[1] = test system: human cystinotic fibroblasts (GM00008); test: Cytotoxicity (MTT cell viability) in cystinotic fibroblast cell culture; format: cell-based; conditions: for cell viability (cytotoxicity) versus no treatment: 25, 50 or 75 μM, 48 and 72 hours (FIGS. 1 and 2), MTT; for increase of human cystinotic cell viability compared to cysteamine at the same concentration: 25 μM
Protocol: Appropriate concentrations of the NACA and diNACA were selected and incubated along with human cystinotic fibroblasts in media. […] Media was then removed, and cells were incubated in 0.5mg/ml MTT (3-(4,5-dimethylthiazol-2-yl)-2,5-diphenyltetrazolium bromide) reconstituted in media. A colorimetric assay used reduction of the yellow tetrazolium salt (MTT) to a purple formazan salt in order to measure cellular metabolic activity as a proxy for cell viability. Treated cells were incubated in MTT for 4 hours at 37° C., after which time intracellular purple formazan salt crystals were visible under a microscope. MTT solution was then removed, and DMSO was added to each well in order to lyse cells and dissolve the salt crystals. After 1 hour incubation at 37° C., absorbance was measured on a multiwell plate reader (Biotek FL6000) at 570 nm, and percentage cell viability calculated.

[2] = test system: human cystinotic fibroblasts (GM00008); test: Screening of cystine-depleting activity in human cystinotic cell-based model; conditions: 50 μM
Protocol: A specialized in vitro human cystinotic cell-based model was used for determining cystine content (Omran et al., 2011c). […]
The cells were recovered from storage at −80° C. and suspended in 100 μl […] N-ethyl malimide prepared in phosphate buffer (pH 7.6) followed by sonication for 10 seconds which was repeated 3 times with 20 second cooling intervals on ice. The solution was centrifuged at 800 G for 10 min at 4° C. (Biofuge primo R Heraeus centrifuge). To this cell supernatant (40 μl) was added 4 μl of 4M NaBH4 in 7:3 0.1 M NaOH/DMSO. After 5 min incubation at room temperature, 800 μl of sodium acetate buffer (pH 4.7) was added. A 5 μl volume of the diluted solution was added to 100 μl of 0.6mg/ml solution of Papain-SSCH3 in a 96 well plate and incubated for one hour at room temperature. A 100 μl volume of 4.9 mM L-benzoylarginine p-nitroanilide (L-BAPNA) solution in sodium acetate buffer (pH 4.0) was added to each well of the 96 well plate, gently mixed and incubated for further one hour at room temperature. Absorption at 410 nm was measured and the cysteine levels were calculated by comparison to known cysteine standard.
The protein concentration in every sample was measured according to Bradford method. Briefly, 200 μl of Bradford reagent was added to 5 μl of cell supernatant in each well of a 96 well plate and incubated for 5 minutes at room temperature and the absorption at 595 nm was measured. The protein concentration was calculated using a range of concentrations of bovine serum albumin as a standard. The cysteine levels were determined following normalization to μM cysteine per mg of protein.

[3] = test system: rabbit eyes; test: Ophthalmic tolerability, daily Draize scores after topical ocular administration; format: in vivo; conditions: rabbits, 1% in prototype vehicle, per animal and eye; for Daily Draize Scores for Chemosis, Day 1 / Daily Draize Scores for Discharge, Day 1 / Daily Draize Scores for Hyperemia, Day 1 / Daily Draize Scores for Chemosis, Day 2 / Daily Draize Scores for Discharge, Day 2 / Daily Draize Scores for Hyperemia, Day 2 / Daily Draize Scores for Chemosis, Day 3 / Daily Draize Scores for Discharge, Day 3 / Daily Draize Scores for Hyperemia, Day 3 / Daily Draize Scores for Chemosis, Day 4 / Daily Draize Scores for Discharge, Day 4 / Daily Draize Scores for Hyperemia, Day 4 / Daily Draize Scores for Chemosis, Day 5 / Daily Draize Scores for Discharge, Day 5 / Daily Draize Scores for Hyperemia, Day 5 / Daily Draize Scores for Chemosis, Day 6 / Daily Draize Scores for Hyperemia, Day 6 / Daily Draize Scores for Discharge, Day 6: bilateral topical four times a day; for Daily Draize Scores for Chemosis, Day 7 / Daily Draize Scores for Hyperemia, Day 7 / Daily Draize Scores for Discharge, Day 7 / Daily Draize Scores for Chemosis, Day B / Daily Draize Scores for Discharge, Day B / Daily Draize Scores for Hyperemia, Day B: bilateral topical; for Daily Draize Scores for Chemosis, Day 7 / Daily Draize Scores for Hyperemia, Day 7 / Daily Draize Scores for Discharge, Day 7: once on Day 7; for Daily Draize Scores for Chemosis, Day B / Daily Draize Scores for Discharge, Day B / Daily Draize Scores for Hyperemia, Day B: (baseline)
Protocol: To simulate topical ocular exposure to an ophthalmic insert containing AGENT, prototype ophthalmic formulations were prepared containing either 1% NPI-001, 1% diNACA, 1% NAC or vehicle and tested to evaluate ocular tolerability. Three rabbits per group were administered 1% NPI-001, 1% di-NAC, 1% NAC in a prototype vehicle, via bilateral topical administration four times a day for 6 days, and once on Day 7.

[4] = NACA in aqueous humor after topical ocular administration; format: in vivo; conditions: rabbit eyes, 1% topical ocular
Protocol: The thiol moiety of NAC, NACA, diNACA and their respective internal standards oxidizes quickly in plasma through formation of disulfides. In order to determine total NAC and total NACA levels in plasma, tris(2-carboxyethyl)phosphine (TCEP) is added during the extraction to reduce disulfide bonds (King et al., 2019). Ammonium bicarbonate is added to control sample pH near neutral, as TCEP will otherwise acidify the aliquoted samples and hinder derivatization. The free analyte is then derivatized to a stable thioether using 2-chloro-1-methylpyridinium iodide (CMPI). N-acetyl-L-cysteine is used as the reference standard. The assay would not discern the enantiomer, N-acetyl-D-cysteine, if present. A sample volume of 25.0 μL is aliquoted into a 1.2 mL 96-well plate to which is added, in sequence, 25.0 μL internal standard solution (1000 ng/mL NAC-D3 and 1000 ng/mL NACA-D3 in water), 50.0 μL of ammonium bicarbonate (100 mM), 5.0 μL CMPI (60 mM in water), and 5.0 μL of TCEP (60 mM in water). Samples are allowed to react for 30 minutes. To precipitate proteins, 500 μL of acetonitrile is then added to all samples. The plate is covered and the mixtures are shaken and centrifuged. […]
Samples were analyzed on a Waters Acquity liquid chromatograph interfaced with a Thermo Scientific TSQ Vantage triple quadrupole mass spectrometer with ESI ionization (King et al., 2019). […]

What does the source list for `CC(=O)NC(CS)C(N)=O` (stereo not drawn)?
cell viability (cytotoxicity) versus no treatment [1]: increased cell viability; increase of human cystinotic cell viability compared to cysteamine at the same concentrations ([1]; all concentrations (25, 50, 75 μM), 72 hours (FIG. 2)): statistically superior to cysteamine; relative cystine concentration as percent of control, comparison with cysteamine ([2]; 6 hours (FIG. 3)): statistically superior to cysteamine; relative cystine concentration as percent of control, comparison with cysteamine ([2]; 24 hours (FIG. 4)): statistically superior; relative cystine concentration as percent of control, comparison with cysteamine ([2]; 48 hours (FIG. 5)): statistically superior to cysteamine; relative cystine concentration as percent of control, comparison with cysteamine ([2]; 72 hours (FIG. 6)): superior to cysteamine; Daily Draize Scores for Chemosis, Day 1 [3]: 0; Daily Draize Scores for Discharge, Day 1 [3]: 0; Daily Draize Scores for Hyperemia, Day 1 [3]: 0; Daily Draize Scores for Chemosis, Day 2 [3]: 0; Daily Draize Scores for Discharge, Day 2 [3]: 0; Daily Draize Scores for Hyperemia, Day 2 [3]: 0; Daily Draize Scores for Chemosis, Day 3 [3]: 0; Daily Draize Scores for Discharge, Day 3 [3]: 0; Daily Draize Scores for Hyperemia, Day 3 [3]: 0; Daily Draize Scores for Chemosis, Day 4 [3]: 0; Daily Draize Scores for Discharge, Day 4 [3]: 0; Daily Draize Scores for Hyperemia, Day 4 [3]: 0; Daily Draize Scores for Chemosis, Day 5 [3]: 0; Daily Draize Scores for Discharge, Day 5 [3]: 0; Daily Draize Scores for Hyperemia, Day 5 [3]: 0; Daily Draize Scores for Chemosis, Day 6 [3]: 0; Daily Draize Scores for Hyperemia, Day 6 [3]: 0; Daily Draize Scores for Discharge, Day 6 ([3]; listed as NPI-001): 0.5 and 0 (5×); Daily Draize Scores for Chemosis, Day 7 [3]: 0; Daily Draize Scores for Hyperemia, Day 7 [3]: 0; Daily Draize Scores for Discharge, Day 7 ([3]; listed as NPI-001): 0 (4×) and 0.5 (2×); Daily Draize Scores for Chemosis, Day B [3]: 0; Daily Draize Scores for Discharge, Day B [3]: 0; Daily Draize Scores for Hyperemia, Day B [3]: 0; NACA in aqueous humor [4]: detectable

What does the source list for `CC(=O)NC(CSSCC(NC(C)=O)C(N)=O)C(N)=O` [diNACA, (2R,2R′)-3,3′-disulfanediyl bis(2-acetamidopropanamide)]?
increase of human cystinotic cell viability compared to cysteamine at the same concentration ([1]; 48 hours (FIG. 1)): statistically superior to cysteamine; increase of human cystinotic cell viability compared to cysteamine at the same concentration ([1]; 72 hours (FIG. 2)): statistically superior to cysteamine; cell viability (cytotoxicity) versus no treatment [1]: increased cell viability; relative cystine concentration as percent of control, comparison with cysteamine ([2]; 6 hours (FIG. 3)): statistically superior to cysteamine; relative cystine concentration as percent of control, comparison with cysteamine ([2]; 24 hours (FIG. 4)): superior to cysteamine; relative cystine concentration as percent of control, comparison with cysteamine ([2]; 48 hours (FIG. 5)): statistically superior to cysteamine; depletion of cystine compared to control ([2]; 72 hours (FIG. 6)): 20%; Daily Draize Scores for Chemosis, Day 1 [3]: 0; Daily Draize Scores for Discharge, Day 1 [3]: 0; Daily Draize Scores for Hyperemia, Day 1 [3]: 0; Daily Draize Scores for Chemosis, Day 2 [3]: 0; Daily Draize Scores for Discharge, Day 2 [3]: 0; Daily Draize Scores for Hyperemia, Day 2 [3]: 0; Daily Draize Scores for Chemosis, Day 3 [3]: 0; Daily Draize Scores for Discharge, Day 3 [3]: 0; Daily Draize Scores for Hyperemia, Day 3 [3]: 0; Daily Draize Scores for Chemosis, Day 4 [3]: 0; Daily Draize Scores for Discharge, Day 4 [3]: 0 (3×) and 1 (2×) and 0.5; Daily Draize Scores for Hyperemia, Day 4 [3]: 0; Daily Draize Scores for Chemosis, Day 5 [3]: 0; Daily Draize Scores for Discharge, Day 5 [3]: 0; Daily Draize Scores for Hyperemia, Day 5 [3]: 0; Daily Draize Scores for Chemosis, Day 6 [3]: 0; Daily Draize Scores for Discharge, Day 6 [3]: 0 (4×) and 0.5 (2×); Daily Draize Scores for Hyperemia, Day 6 [3]: 0; Daily Draize Scores for Chemosis, Day 7 [3]: 0; Daily Draize Scores for Discharge, Day 7 [3]: 0 (5×) and 0.5; Daily Draize Scores for Hyperemia, Day 7 [3]: 0; Daily Draize Scores for Chemosis, Day B [3]: 0; Daily Draize Scores for Discharge, Day B [3]: 0; Daily Draize Scores for Hyperemia, Day B [3]: 0; NACA in aqueous humor [4]: detectable
